Source: patent publication US12152060B2, “Interleukin-2 variants and methods of uses thereof” (Cugene Inc, priority 2018, dated 2024)

Columns and labels:
[1] = system: STAT5 phosphorylation in CD4+/Foxp3+/CD25+ Treg, CD4+/Foxp3-/CD25+ CD4 effector and CD4+/Foxp3-/CD25- CD4 naive T cell subsets; test: STAT5 phosphorylation in three CD4+ T cell subsets, human PBMC; format: cell-based; conditions: FIG. 9
Description: After human PBMC Cells were treated with serial dilutions of test compounds, fixed and permeabilized, washed, and stained with a mixture of anti-CD25-PE, anti-FOXP3-APC, anti-pSTAT5-FITC, and anti-CD4-PerCP-Cy5.5 antibodies, the flow cytometry analysis was gated into CD4+/Foxp3+/CD25+, CD4+/Foxp3−/CD25+, CD4+/Foxp3−/CD25− groups for the Treg, CD4 effector, and CD4 naive T cell subsets, respectively. Data are expressed as a percent of pSTAT5 positive cells in gated population and illustrated in FIG. 9.

[2] = system: regulatory T cells (CD4+CD25+FoxP3+ T cells), effector T cells and NK cells; test: Treg versus effector T and NK cell proliferation and expansion in mice after a single subcutaneous injection; format: in vivo, mouse; conditions: 0.3 mg/kg s.c. single dose, C57/BL6 mice
Description: IL-2 variant Fc fusion proteins were administered to mice and their ability to preferentially proliferate and expand regulatory T cells (CD4+CD25+FoxP3+ T cells) over effector T cells and NK cells were determined in vivo.
Female C57/BL6 mice (7-week old) were received from Charles River Laboratory and acclimated in house for at least 7 days before the study. Vehicle (PBS), 0.3 mg/kg of each test compounds, or IL-2 benchmark compounds were subcutaneously administered to mice on day 0. Peripheral blood samples were collected into heparin-treated tubes on days 3, 5 and 7 post-treatment. Each group contained 6 mice and baseline blood was collected 2 days prior to the treatment (day-2). After red blood cell lysis, total viable mononuclear blood cells were counted by trypan blue dead cell exclusion method and proceeded to intracellular staining for immune cell phenotype and Ki67 proliferation markers using flow cytometric analysis. Cells were stained separately with two panels of antibodies as listed: 1) anti-mouse Foxp3-FITC, Ki67-PE, anti-mouse CD25-APC and anti-mouse CD4-Percpcy5.5 (1:50 dilution) for CD4+T-regulatory cells (Treg); 2) anti-mouse CD3-FITC, Ki67-PE, anti-mouse CD335-APC and anti-mouse CD8-Percpcy5.5 (1:50 dilution) for CD8+T and NK cells.

[3] = system: STAT5 phosphorylation in CD4+ Treg cells (CD4+/Foxp3+/CD25high); test: STAT5 phosphorylation in CD4+ Treg cells, human PBMC assay by FACS; format: cell-based; conditions: pSTAT5, Treg versus Tconv
From the text: Single amino acid substitutions were introduced to IL-2 at positions corresponding to amino acids interacting with receptor subunit(s) β or γ or By. These substitutions were aimed to reduce IL-2 signaling capacity through the intermediate affinity IL-2Rβγ complex and confer signaling specificity from the high affinity IL-2Rαβγ. IL-2 variants containing single amino acid substitutions were examined for their ability to differentially stimulate STAT5 phosphorylation in CD4 positive Treg and Tconv cells. STAT5 is known to be involved in the downstream signaling cascade upon IL-2 binding to the transmembrane IL-2 receptors. The phosphorylation of STAT5 in defined lymphocyte subpopulations was measured using fresh human peripheral blood mononuclear cells (PBMC) and the forkhead transcription factor FOXP3 was used to identify the Treg population in FACS analysis.
Briefly, human PBMC were isolated by Ficoll-Hypaque centrifugation from the buffy coat of a healthy donor. PBMC were starved in serum-free MACS buffer at 4° C. for 1 hour. 2×10^5 PBMC were then treated with serial dilutions of test compounds for 30 min at 37° C. Cells were fixed and permeabilized with Foxp3/Transcription Factor Staining Buffer Set (EBIO) by incubating with 1× Foxp3 fixation/permeabilization working solution for 30 minutes and washing with 1× permeabilization buffer. Cells were additionally fixed with Cytofix buffer and permeabilized with Perm Buffer III (BD Biosciences) and then washed. After blocking Fc receptors by adding human TruStain™ FcX (1:50 dilution), cells were stained with a mixture of anti-CD25-PE, anti-FOXP3-APC, anti-pSTAT5-FITC, and anti-CD4-PerCP-Cy5.5 antibodies at concentrations recommended by the manufacturer for 45 minutes at room temperature. Cells were collected by centrifugation, washed, resuspended in FACS buffer, and analyzed by flow cytometry. The flow cytometry data was gated into CD4+/Foxp3+/CD25^high and CD4+/Foxp3−/CD25^low groups for the Treg and CD4 conventional T cell subsets, respectively. Data are expressed as a percent of pStat5 positive cells in gated population.

[4] = target: T1, non-covalent complex of IL-2Rβ-ECD (NP_000869) and γc-ECD (NP_000197) (Homo sapiens, UniProt P14784+P31785); test: ELISA binding to IL-2Rβ and γc complex
T1 construct: non-covalent complex of IL-2Rβ-ECD (NP_000869) and γc-ECD (NP_000197)
T1 sequence (P14784 27-240 limits assumed): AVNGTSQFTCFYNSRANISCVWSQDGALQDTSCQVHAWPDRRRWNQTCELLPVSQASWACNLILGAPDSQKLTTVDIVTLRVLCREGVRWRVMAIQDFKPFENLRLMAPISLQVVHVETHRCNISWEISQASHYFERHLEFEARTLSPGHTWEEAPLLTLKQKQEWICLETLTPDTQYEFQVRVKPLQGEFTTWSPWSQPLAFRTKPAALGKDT
T1 sequence (P31785 23-262 limits assumed): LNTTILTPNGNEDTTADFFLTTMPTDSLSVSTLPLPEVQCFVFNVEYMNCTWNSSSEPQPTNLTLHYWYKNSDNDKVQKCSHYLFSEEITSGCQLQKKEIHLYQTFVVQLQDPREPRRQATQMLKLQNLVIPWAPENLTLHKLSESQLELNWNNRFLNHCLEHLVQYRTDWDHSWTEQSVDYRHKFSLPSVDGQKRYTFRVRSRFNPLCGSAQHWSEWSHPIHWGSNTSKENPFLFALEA
Description: Briefly, non-covalent complex of IL-2Rβ-ECD (NP_000869) and γc-ECD (NP_000197) through heterodimeric Fc chains was coated onto the wells of Nunc Maxisorp 96-well microplates at 2 μg/well. After overnight incubation at 4° C. and blocking with superblock (ThermoFisher), 3-fold serial dilutions of IL-2 Fc fusion proteins starting at either 100 or 270 nM were added to each well at 100 μl/well. Following a one-hour incubation at room temperature, biotin mouse anti-human IL-2 Ab (BD BioSciences) at 1 μg/ml was added to each well followed by incubation with HRP-Avidin (ThermoFisher) at 1 μg/ml for 1 hour. Wells were thoroughly aspirated and washed three times with PBS/0.05% Tween-20 following each step. Finally, 100 μl TMB substrate was added to each well; the plate was developed at room temperature in the dark for 10 minutes, and 100 μl/well of stop solution (2N Sulfuric acid, Ricca Chemical) was added. Absorbance was determined at 450 nm; curves were fit using Prism software (GraphPad) and illustrated in FIG. 11E.

EC50, binding to IL-2Rβ and γc complex (ELISA) [4]: did not show appreciable binding
Substance: P-0511: Fc fusion protein of IL-2 variant L19H/S125I/Q126E; SEQ ID NO: 198
pSTAT5 potency and selectivity in Treg, Teff and naive CD4 T cell subsets (in words) [1]: preferential activation of Treg over Teff
pSTAT5 potency and selectivity in Treg, Teff and naive CD4 T cell subsets (in words) ([1]; listed as P-511): superior to both Benchmark-2 and -3
Ki67 stimulation on CD8 T cells and NK cells [2]: mild Ki67 stimulation
expansion of CD4+ Tconv cells, CD8 T cells or NK cells [2]: No significant expansion
Treg cell proliferation and expansion (Ki67 positive Treg, % Treg over CD4+ T cells or lymphocytes) ([2]; days 3, 5, 7): stronger in vivo efficacy
window for selective activation of Treg cells over CD4+ Tconv cells (in words) [3]: further widened the Treg selectivity window
